Measurements from article PMC1802613 (Nucleic Acids Research, 2006).

Target: M-PMV NC-dUTPase (Mason-Pfizer monkey virus, UniProt P07570)
Assay: isothermal titration calorimetry
Type: binding

Chain of M-PMV NC-dUTPase (P07570 526-759): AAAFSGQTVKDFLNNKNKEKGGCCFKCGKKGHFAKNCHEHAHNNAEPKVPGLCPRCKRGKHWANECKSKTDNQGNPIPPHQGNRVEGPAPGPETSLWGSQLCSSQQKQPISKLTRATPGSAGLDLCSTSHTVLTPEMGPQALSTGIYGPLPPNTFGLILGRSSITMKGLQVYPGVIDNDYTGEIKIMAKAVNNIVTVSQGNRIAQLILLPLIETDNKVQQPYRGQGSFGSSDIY

O=c1ccn([C@H]2C[C@H](O)[C@@H](COP(=O)(O)NP(=O)(O)OP(=O)(O)O)O2)c(=O)[nH]1 [α,β-imino dUTP]
Kd: 1200 ± 20 nM
